Reference: article PMC11233931, “Remodeling tumor‐associated macrophage for anti‐cancer effects by rational design of irreversible inhibition of mitogen‐activated protein kinase‐activated protein kinase 2” (MedComm, 2024)

Assays:
Test in all cases: Eurofins kinase selectivity profile against 380 other human recombinant kinases (Table S2)
Type in all cases: biochemical
[1] = target: T1, 380 human recombinant protein kinases (Homo sapiens, UniProt Q13043); conditions: MST1(h), read-out: Inhibition rate
T1 construct: purchased Eurofins (Celle Lévescault)
T1 sequence (Q13043 1-487): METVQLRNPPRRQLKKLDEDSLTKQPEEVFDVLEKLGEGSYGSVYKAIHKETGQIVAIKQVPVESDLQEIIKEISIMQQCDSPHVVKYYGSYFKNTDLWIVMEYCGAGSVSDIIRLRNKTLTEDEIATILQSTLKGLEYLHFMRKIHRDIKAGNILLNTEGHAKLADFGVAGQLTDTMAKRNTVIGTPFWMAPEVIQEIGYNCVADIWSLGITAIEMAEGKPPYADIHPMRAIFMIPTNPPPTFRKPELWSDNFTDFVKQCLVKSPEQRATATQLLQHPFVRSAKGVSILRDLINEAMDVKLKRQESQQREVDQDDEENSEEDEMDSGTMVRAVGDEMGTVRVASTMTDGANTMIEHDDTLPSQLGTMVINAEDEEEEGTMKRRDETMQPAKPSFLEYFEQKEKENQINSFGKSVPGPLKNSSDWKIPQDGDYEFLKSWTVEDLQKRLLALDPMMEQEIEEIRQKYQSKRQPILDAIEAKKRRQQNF
How it was run: (§1)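 To gauge specificity for MK2, the compound is profiled externally at various concentrations on recombinant human kinases, 380 in total.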

[2] = target: T2, 380 human recombinant protein kinases (Homo sapiens, UniProt Q13555); conditions: CaMKIIγ(h), read-out: Inhibition rate
T2 construct: purchased Eurofins (Celle Lévescault)
T2 sequence (Q13555 whole entry): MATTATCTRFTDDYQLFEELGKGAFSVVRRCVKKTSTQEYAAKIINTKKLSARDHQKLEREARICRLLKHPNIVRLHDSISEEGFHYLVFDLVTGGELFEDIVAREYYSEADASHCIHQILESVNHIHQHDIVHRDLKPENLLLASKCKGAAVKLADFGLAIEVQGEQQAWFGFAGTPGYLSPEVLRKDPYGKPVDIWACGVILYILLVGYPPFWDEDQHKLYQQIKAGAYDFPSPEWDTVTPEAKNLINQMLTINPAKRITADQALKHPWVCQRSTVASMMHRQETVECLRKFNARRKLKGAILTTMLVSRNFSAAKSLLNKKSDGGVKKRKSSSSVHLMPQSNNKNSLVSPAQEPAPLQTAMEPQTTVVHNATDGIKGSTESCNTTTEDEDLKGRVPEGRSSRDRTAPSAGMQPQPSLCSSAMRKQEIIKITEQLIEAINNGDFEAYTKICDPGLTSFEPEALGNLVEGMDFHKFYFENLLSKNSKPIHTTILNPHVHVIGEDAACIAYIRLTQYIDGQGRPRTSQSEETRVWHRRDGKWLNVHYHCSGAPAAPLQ
How it was run: as §1

[3] = target: T3, 380 human recombinant protein kinases (Homo sapiens, UniProt P54753); conditions: EphB3(h), read-out: Inhibition rate
T3 construct: purchased Eurofins (Celle Lévescault)
T3 sequence (P54753 34-998): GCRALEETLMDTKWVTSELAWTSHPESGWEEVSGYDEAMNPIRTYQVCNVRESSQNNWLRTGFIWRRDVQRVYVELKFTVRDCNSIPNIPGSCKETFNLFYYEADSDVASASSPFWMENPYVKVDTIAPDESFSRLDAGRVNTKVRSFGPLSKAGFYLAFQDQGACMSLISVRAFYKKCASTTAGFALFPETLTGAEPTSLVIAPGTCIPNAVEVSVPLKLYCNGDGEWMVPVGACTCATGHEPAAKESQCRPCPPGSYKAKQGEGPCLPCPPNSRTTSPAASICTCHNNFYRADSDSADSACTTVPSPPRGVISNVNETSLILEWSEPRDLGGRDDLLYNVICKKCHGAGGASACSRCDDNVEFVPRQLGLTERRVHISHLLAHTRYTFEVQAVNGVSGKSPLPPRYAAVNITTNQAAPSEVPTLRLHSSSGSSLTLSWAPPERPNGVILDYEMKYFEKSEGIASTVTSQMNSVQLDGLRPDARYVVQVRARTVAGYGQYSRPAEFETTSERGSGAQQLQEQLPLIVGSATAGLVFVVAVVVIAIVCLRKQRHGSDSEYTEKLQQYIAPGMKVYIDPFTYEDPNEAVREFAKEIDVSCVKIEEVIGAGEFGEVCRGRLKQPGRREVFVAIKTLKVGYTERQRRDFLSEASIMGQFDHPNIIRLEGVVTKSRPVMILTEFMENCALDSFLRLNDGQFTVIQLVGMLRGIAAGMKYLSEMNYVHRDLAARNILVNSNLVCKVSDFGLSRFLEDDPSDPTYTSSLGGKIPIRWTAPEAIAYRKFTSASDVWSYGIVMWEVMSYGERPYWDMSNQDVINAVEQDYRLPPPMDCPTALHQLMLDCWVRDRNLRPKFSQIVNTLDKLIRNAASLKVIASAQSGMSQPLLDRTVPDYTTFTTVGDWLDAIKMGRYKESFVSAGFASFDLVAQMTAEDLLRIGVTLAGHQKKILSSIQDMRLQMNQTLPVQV
How it was run: as §1

[4] = target: T4, 380 human recombinant protein kinases (Homo sapiens, UniProt Q9UK32); conditions: Rsk4(h), read-out: Inhibition rate (%)
T4 construct: purchased Eurofins (Celle Lévescault)
T4 sequence (Q9UK32 whole entry): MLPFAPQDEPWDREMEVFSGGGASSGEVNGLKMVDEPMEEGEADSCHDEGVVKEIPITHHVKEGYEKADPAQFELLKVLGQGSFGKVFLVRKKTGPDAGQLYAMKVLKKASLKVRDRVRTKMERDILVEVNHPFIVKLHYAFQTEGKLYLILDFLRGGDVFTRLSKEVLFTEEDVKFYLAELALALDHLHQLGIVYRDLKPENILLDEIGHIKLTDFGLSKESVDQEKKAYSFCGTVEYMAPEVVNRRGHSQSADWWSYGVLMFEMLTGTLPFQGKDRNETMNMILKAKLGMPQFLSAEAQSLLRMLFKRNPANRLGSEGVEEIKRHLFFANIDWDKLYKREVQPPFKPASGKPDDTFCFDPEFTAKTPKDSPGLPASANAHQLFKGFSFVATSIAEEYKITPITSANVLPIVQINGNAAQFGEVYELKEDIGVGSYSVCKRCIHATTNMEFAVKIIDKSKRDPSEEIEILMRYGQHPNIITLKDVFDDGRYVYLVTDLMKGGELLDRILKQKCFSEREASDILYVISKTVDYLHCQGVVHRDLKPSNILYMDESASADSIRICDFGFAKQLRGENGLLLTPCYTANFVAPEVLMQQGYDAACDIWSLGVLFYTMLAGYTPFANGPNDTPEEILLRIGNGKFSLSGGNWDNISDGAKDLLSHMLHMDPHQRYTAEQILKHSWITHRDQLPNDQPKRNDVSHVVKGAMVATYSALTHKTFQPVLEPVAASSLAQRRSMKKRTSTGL
How it was run: as §1

[5] = target: T5, 380 human recombinant protein kinases (Homo sapiens, UniProt P53671); conditions: LIMK2(h), read-out: Inhibition rate
T5 construct: purchased Eurofins (Celle Lévescault)
T5 sequence (P53671 whole entry): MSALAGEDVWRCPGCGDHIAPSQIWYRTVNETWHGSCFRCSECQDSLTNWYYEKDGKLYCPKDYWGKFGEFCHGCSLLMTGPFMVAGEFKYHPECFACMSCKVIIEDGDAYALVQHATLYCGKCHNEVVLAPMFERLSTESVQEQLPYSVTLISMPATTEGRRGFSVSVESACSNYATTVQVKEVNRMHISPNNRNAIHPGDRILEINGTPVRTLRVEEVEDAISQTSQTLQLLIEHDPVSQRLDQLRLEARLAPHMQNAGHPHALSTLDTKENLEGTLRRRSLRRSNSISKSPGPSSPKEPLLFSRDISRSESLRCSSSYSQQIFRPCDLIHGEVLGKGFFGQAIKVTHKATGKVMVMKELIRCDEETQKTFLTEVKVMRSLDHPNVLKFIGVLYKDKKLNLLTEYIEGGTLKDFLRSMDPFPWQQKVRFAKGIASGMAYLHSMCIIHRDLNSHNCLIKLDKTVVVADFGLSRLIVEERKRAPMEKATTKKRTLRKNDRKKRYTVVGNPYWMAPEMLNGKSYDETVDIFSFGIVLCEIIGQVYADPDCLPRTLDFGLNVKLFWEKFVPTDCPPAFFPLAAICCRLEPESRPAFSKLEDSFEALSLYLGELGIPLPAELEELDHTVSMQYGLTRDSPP
How it was run: as §1

[6] = target: T6, 380 human recombinant protein kinases (Homo sapiens, UniProt Q96RR4); conditions: CaMKK2(h), read-out: Inhibition rate
T6 construct: purchased Eurofins (Celle Lévescault)
How it was run: as §1

[7] = target: T7, 380 human recombinant protein kinases (Homo sapiens, UniProt Q9H0K1); conditions: SIK2(h), read-out: Inhibition rate (%)
T7 construct: purchased Eurofins (Celle Lévescault)
T7 sequence (Q9H0K1 whole entry): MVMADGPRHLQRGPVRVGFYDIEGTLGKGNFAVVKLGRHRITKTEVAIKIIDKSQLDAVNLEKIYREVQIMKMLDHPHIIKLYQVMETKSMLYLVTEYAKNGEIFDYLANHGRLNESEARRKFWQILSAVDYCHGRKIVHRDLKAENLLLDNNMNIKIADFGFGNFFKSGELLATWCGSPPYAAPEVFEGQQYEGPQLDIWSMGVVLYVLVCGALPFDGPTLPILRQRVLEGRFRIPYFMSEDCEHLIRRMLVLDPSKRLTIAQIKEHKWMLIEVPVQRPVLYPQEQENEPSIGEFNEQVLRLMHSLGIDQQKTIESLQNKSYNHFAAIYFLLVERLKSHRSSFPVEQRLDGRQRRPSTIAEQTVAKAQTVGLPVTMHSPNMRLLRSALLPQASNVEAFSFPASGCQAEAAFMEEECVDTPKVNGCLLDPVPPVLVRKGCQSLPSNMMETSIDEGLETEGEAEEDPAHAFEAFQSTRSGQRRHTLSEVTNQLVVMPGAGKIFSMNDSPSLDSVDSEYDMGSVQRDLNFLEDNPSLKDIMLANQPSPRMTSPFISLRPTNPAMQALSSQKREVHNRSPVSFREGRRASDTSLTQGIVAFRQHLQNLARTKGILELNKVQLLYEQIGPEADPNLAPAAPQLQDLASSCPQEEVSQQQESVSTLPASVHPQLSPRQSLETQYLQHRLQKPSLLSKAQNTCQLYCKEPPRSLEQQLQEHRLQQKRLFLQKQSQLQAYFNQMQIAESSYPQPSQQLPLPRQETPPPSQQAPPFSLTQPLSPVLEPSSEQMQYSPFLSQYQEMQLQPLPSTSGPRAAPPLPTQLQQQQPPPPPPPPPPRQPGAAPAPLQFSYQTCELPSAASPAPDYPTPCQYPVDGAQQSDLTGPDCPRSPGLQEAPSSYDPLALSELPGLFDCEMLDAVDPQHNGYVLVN
How it was run: as §1

[8] = target: T8, 380 human recombinant protein kinases (Homo sapiens, UniProt Q08345); conditions: DDR1(h), read-out: Inhibition rate
T8 construct: purchased Eurofins (Celle Lévescault)
T8 sequence (Q08345 19-913): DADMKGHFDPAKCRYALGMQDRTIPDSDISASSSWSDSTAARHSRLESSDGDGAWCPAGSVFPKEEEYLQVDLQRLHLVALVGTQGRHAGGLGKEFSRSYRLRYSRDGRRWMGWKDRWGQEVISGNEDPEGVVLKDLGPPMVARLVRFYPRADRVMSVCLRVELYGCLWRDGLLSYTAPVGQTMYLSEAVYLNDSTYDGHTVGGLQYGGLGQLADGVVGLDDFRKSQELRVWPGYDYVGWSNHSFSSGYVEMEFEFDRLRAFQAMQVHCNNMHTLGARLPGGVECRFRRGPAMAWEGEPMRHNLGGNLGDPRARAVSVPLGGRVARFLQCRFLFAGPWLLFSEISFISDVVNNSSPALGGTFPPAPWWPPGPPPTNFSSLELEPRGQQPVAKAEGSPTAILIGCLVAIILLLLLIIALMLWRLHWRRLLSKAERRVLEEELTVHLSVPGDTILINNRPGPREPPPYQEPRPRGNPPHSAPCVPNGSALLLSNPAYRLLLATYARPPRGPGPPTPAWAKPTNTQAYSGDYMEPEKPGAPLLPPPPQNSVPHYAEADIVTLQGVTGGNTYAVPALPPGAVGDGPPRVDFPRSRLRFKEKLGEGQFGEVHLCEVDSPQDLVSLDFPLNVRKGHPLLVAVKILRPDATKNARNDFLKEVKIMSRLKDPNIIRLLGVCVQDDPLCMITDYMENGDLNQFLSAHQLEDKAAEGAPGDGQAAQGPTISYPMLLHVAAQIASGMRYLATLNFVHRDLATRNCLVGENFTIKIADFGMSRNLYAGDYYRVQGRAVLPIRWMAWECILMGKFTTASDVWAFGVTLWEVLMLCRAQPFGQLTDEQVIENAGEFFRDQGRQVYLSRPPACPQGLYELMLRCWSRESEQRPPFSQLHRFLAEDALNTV
How it was run: as §1

[9] = target: T9, 380 human recombinant protein kinases (Homo sapiens, UniProt P09769); conditions: Fgr(h), read-out: Inhibition rate
T9 construct: purchased Eurofins (Celle Lévescault)
T9 sequence (P09769 whole entry): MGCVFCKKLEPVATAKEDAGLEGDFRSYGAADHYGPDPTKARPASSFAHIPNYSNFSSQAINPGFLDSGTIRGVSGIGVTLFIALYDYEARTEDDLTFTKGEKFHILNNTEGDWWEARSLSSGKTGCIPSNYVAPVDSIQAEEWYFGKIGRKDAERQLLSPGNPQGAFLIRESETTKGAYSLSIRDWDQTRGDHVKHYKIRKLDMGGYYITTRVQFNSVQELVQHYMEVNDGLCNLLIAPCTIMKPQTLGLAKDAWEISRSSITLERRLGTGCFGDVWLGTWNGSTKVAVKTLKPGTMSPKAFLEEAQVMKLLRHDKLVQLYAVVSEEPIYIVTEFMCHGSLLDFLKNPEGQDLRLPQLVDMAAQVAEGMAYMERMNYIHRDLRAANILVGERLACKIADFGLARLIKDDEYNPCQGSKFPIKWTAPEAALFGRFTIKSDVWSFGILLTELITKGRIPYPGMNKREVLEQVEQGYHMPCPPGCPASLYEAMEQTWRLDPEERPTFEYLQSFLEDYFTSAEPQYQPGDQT
How it was run: as §1

[10] = target: T10, 380 human recombinant protein kinases (Homo sapiens, UniProt Q5VT25); conditions: MRCKα(h), read-out: Inhibition rate
T10 construct: purchased Eurofins (Celle Lévescault)
How it was run: as §1

[11] = target: T11, 380 human recombinant protein kinases (Homo sapiens, UniProt P48730); conditions: CK1δ(h), read-out: Inhibition rate
T11 construct: purchased Eurofins (Celle Lévescault)
T11 sequence (P48730 whole entry): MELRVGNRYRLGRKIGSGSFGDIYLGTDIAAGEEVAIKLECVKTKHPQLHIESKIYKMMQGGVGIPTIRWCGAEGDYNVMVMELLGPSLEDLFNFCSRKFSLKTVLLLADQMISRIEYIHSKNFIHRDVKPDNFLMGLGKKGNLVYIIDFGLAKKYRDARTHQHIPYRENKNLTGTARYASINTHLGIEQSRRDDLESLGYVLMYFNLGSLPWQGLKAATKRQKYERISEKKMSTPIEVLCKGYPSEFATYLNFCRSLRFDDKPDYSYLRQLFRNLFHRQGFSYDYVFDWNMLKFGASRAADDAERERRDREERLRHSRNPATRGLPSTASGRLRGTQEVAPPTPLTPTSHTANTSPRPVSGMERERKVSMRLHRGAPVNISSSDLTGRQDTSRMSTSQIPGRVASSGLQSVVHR
How it was run: as §1

C=CC(=O)Nc1cc(-c2cc(-c3cc4c([nH]3)CCNC4=O)ccn2)ccc1OC(F)(F)F [compound 11]
inhibition at 0.01 µM ([1]; 10 nM): -1% | inhibition at 0.1 µM ([1]; 100 nM): -9% | inhibition at 1 µM ([1]; 1000 nM): 0% | inhibition at 0.01 µM ([2]; 10 nM): -5% | inhibition at 0.1 µM ([2]; 100 nM): 6% | inhibition at 1 µM ([2]; 1000 nM): 18% | inhibition at 0.01 µM ([3]; 10 nM): 3% | inhibition at 0.1 µM ([3]; 100 nM): -12% | inhibition at 1 µM ([3]; 1000 nM): -1% | inhibition at 0.01 µM ([4]; 10 nM): -9% | inhibition at 0.1 µM ([4]; 100 nM): -4% | inhibition at 1 µM ([4]; 1000 nM): -13% | inhibition at 0.01 µM ([5]; 10 nM): -9% | inhibition at 0.1 µM ([5]; 100 nM): -8% | inhibition at 1 µM ([5]; 1000 nM): -1% | inhibition at 0.01 µM ([6]; 10 nM): -9% | inhibition at 0.1 µM ([6]; 100 nM): -1% | inhibition at 1 µM ([6]; 1000 nM): 38% | inhibition at 0.01 µM ([7]; 10 nM): 2% | inhibition at 0.1 µM ([7]; 100 nM): 4% | inhibition at 1 µM ([7]; 1000 nM): 8% | inhibition at 0.01 µM ([8]; 10 nM): 0% | inhibition at 0.1 µM ([8]; 100 nM): -1% | inhibition at 1 µM ([8]; 1000 nM): -7% | inhibition at 0.01 µM ([9]; 10 nM): 1% | inhibition at 0.1 µM ([9]; 100 nM): 0% | inhibition at 1 µM ([9]; 1000 nM): 0% | inhibition at 0.01 µM ([10]; 10 nM): -5% | inhibition at 0.1 µM ([10]; 100 nM): -3% | inhibition at 1 µM ([10]; 1000 nM): -3% | inhibition at 0.01 µM ([11]; 10 nM): 3% | inhibition at 0.1 µM ([11]; 100 nM): 26% | inhibition at 1 µM ([11]; 1000 nM): 74%
